In data set [1] the test system is Erysiphe graminis f.sp. tritici. Description: Erysiphe test (wheat)/protective. The data set is classed as in vivo. The following applies: protective, application rate 250 g/ha, evaluation 7 days after inoculation. The procedure:
(§1) Erysiphe test (wheat)/protective Solvent: 25 parts by weight of N,N-dimethylacetamide Emulsifier: 0.6 parts by weight of alkylaryl polyglycol ether To produce a suitable preparation of active compound, 1 part by weight of active compound is mixed with the stated amounts of solvent and emulsifier, and the concentrate is diluted with water to the desired concentration. To test for protective activity, young plants are sprayed with the preparation of active compound at the stated application rate. After the spray coating has dried on, the plants are dusted with spores of Erysiphe graminis f.sp. tritici. The plants are placed in a greenhouse at a temperature of approximately 20° C. and a relative atmospheric humidity of approximately 80% to promote the development of mildew pustules. Evaluation is carried out 7 days after the inoculation. 0% means an efficacy which corresponds to that of the control, whereas an efficacy of 100% means that no infections are observed.

Data set [2] relates to Erysiphe graminis f.sp. hordei. Kind of data set: Erysiphe test (barley)/protective. The following applies: protective, application rate 125 g/ha, evaluation 7 days after inoculation. The data set is classed as in vivo. The procedure:
as §1, with “(barley)/protective” for “(wheat)/protective”, “hordei.” for “tritici.”

Data set [3] relates to Puccinia recondita. Description: Puccinia test (wheat)/curative. It is filed as in vivo. The following applies: curative, application rate 125 g/ha, evaluation 10 days after inoculation. The procedure: Puccinia test (wheat)/curative Solvent: 25 parts by weight of N,N-dimethylacetamide Emulsifier: 0.6 parts by weight of alkylaryl polyglycol ether To produce a suitable preparation of active compound, 1 part by weight of active compound is mixed with the stated amounts of solvent and emulsifier, and the concentrate is diluted with water to the desired concentration. To test for curative activity, young plants are sprayed with a Conidia suspension of Puccinia recondita. The plants remain in an incubation cabin at 20° C. and 100% relative atmospheric humidity for 48 hours. The plants are then sprayed with the preparation of active compound at the stated application rate. The plants are placed in a greenhouse at a temperature of approximately 20° C. and a relative atmospheric humidity of approximately 80% to promote the development of rust pustules. Evaluation is carried out 10 days after the inoculation. 0% means an efficacy which corresponds to that of the control, whereas an efficacy of 100% means that no infections are observed.

Another data set relates to Coriolus versicolor. Kind of data set: Inhibition test on giant colonies of Basidiomycetes. The data set is classed as cell-based. The following applies: Trametes versicolor; 6 ppm of active compound, malt extract peptone agar, 26° C., evaluation after 3 or 7 days; read-out: Inhibition in per cent of radial growth of giant colonies. The procedure:
Inhibition test on giant colonies of Basidiomycetes Solvent: Dimethylsulphoxide To produce a suitable preparation of active compound, 0.2 parts by weight of active compound are admixed to 99.8 parts by weight of the abovementioned solvent. An agar, prepared by using malt extract peptone, is mixed in a liquid state with the preparation of active compound at the particular desired application rate. After solidification, the resultant nutrient medium is incubated at 26° C. with mycelium pieces punched out of colonies of Coriolus versicolor. Evaluation is carried out after 3 or 7 days' storage at 26° C. by measuring the growth of the mycelium and scoring the resulting inhibition in percent in comparison to the untreated control. 0% means an inhibition of growth which corresponds to that of the untreated control, while an inhibition of growth of 100% means that no growth of mycelium is observed.

Another data set concerns Podosphaera leucotricha. Description: Podosphaera test (apple)/protective. The data set is classed as in vivo. The following applies: protective, evaluation 10 days after inoculation. The procedure:
Podosphaera test (apple)/protective Solvent: 47 parts by weight of acetone Emulsifier: 3 parts by weight of alkylaryl polyglycol ether To produce a suitable preparation of active compound, 1 part by weight of active compound is mixed with the stated amounts of solvent and emulsifier, and the concentrate is diluted with water to the desired concentration. To test for protective activity, young plants are sprayed with the preparation of active compound at the stated application rate. After the spray coating has dried on, the plants are inoculated with an aqueous spore suspension of the causative organism of apple mildew Podosphaera leucotricha. The plants are then placed in a greenhouse at approximately 23° C. and a relative atmospheric humidity of approximately 70%. Evaluation was carried out 10 days after the inoculation. 0% means an efficacy which corresponds to that of the control, whereas an efficacy of 100% means that no infections are observed.

Data set [4] relates to Puccinia recondita. Kind of data set: Puccinia test (wheat)/protective. The data set is classed as in vivo. The following applies: protective, application rate 125 g/ha, evaluation 10 days after inoculation. The procedure:
Puccinia test (wheat)/protective Solvent: 25 parts by weight of N,N-dimethylacetamide Emulsifier: 0.6 parts by weight of alkylaryl polyglycol ether To produce a suitable preparation of active compound, 1 part by weight of active compound is mixed with the stated amounts of solvent and emulsifier, and the concentrate is diluted with water to the desired concentration. To test for protective activity, young plants are sprayed with the preparation of active compound at the stated application rate. After the spray coating has dried on, the plants are sprayed with a […] of Puccinia recondita. The plants remain in an incubation cabin at 20° C. and 100% relative atmospheric humidity for 48 hours. The plants are placed in a greenhouse at a temperature of approximately 20° C. and a relative atmospheric humidity of approximately 80% to promote the development of rust pustules. Evaluation is carried out 10 days after the inoculation. 0% means an efficacy which corresponds to that of the control, whereas an efficacy of 100% means that no infections are observed.

Data set [5] concerns Erysiphe graminis f.sp. hordei. Description: Erysiphe test (barley)/curative. The data set is classed as in vivo. The following applies: curative (sprayed 48 hours after inoculation), application rate 250 g/ha, evaluation 7 days after inoculation. The procedure: as §1, with “(barley)/curative” for “(wheat)/protective”, “curative” for “protective”, “young plants are dusted with spores of Erysiphe graminis f.sp. hordei. 48 hours after the inoculation, the” for “young”, “rate.” for “rate. After the spray coating has dried on, the plants are dusted with spores of Erysiphe graminis f.sp. tritici.”

The next data set deals with Leptosphaeria nodorum. Description: Leptosphaeria nodorum test (wheat)/protective. It is filed as in vivo. The following applies: protective, application rate 250 g/ha, evaluation 10 days after inoculation. The procedure: Leptosphaeria nodorum test (wheat)/protective Solvent: 25 parts by weight of N,N-dimethylacetamide Emulsifier: 0.6 parts by weight of alkylaryl polyglycol ether To produce a suitable preparation of active compound, 1 part by weight of active compound is mixed with the stated amounts of solvent and emulsifier, and the concentrate is diluted with water to the desired concentration. To test for protective activity, young plants are sprayed with the preparation of active compound at the stated application rate. After the spray coating has dried on, the plants are dusted with a spore suspension of Leptosphaeria nodorum. The plants remain in an incubation cabin at 20° C. and 100% relative atmospheric humidity for 48 hours. The plants are placed in a greenhouse at a temperature of approximately 15° C. and a relative atmospheric humidity of 80%. Evaluation is carried out 10 days after the inoculation. 0% means an efficacy which corresponds to that of the control, whereas an efficacy of 100% means that no infections are observed.

SMILES strings stand for the structures.

By melting point is commonly meant the temperature of the solid-liquid transition. For orientation: inhibition means the drop in the measured response relative to a control, in per cent.

Regarding `CC(C)NC(=O)n1cnn(CC2(c3ccc(F)cc3)OC2c2ccccc2Cl)c1=S` (stereo not drawn) [Example 3], the melting point lay within 104 to 106 °C. This molecule also had an Efficacy in % in data set [1] of 100%. This molecule gave an Efficacy in % in data set [2] of 100%. The molecule further gave an Efficacy in % in the data set on Puccinia recondita [3] of 100%. Moreover, the inhibition at 6 ppm with Coriolus versicolor stood at 100%. The same molecule yielded an Efficacy in % in the data set on Podosphaera leucotricha (application rate 1 g/ha) of 80%. In the data set on Podosphaera leucotricha (application rate 10 g/ha), this molecule came in with an Efficacy in % of 100%.

As for `COCCNC(=O)n1cnn(CC2(c3ccc(F)cc3)OC2c2ccccc2Cl)c1=S` (stereo not drawn) [Example 2], the melting point is 105 to 107 °C. This molecule also gave an Efficacy in % in [2] of 100%. Further, the Efficacy in % in the data set on Puccinia recondita [3] worked out at 100%. Also, the Efficacy in % with Puccinia recondita [4] was 100%. In the data set with Podosphaera leucotricha (application rate 1 g/ha), this molecule registered an Efficacy in % of 88%. Moreover, the Efficacy in % with Podosphaera leucotricha (application rate 10 g/ha) was 100%.

With `CCOCCCNC(=O)n1cnn(CC2(c3ccc(F)cc3)OC2c2ccccc2Cl)c1=S` (stereo not drawn) [Example 1], the Efficacy in % (in [1]; in data set [2]; in [5]; in the data set with Puccinia recondita [3]; in the data set with Puccinia recondita [4]; with Leptosphaeria nodorum) was 100% each time. For the same molecule, the Efficacy in % in the data set with Podosphaera leucotricha (application rate 1 g/ha) came out at 65%; with Podosphaera leucotricha (application rate 10 g/ha), 100%. Also, in the data set on Coriolus versicolor, the inhibition at 6 ppm was found to be 100%.

Take `Fc1ccc(C2(Cn3nc[nH]c3=S)OC2c2ccccc2Cl)cc1` (stereo not drawn) [A, 3-(2-chloro-phenyl)-2-(4-fluoro-phenyl)-2-[(4,5-dihydro-5-thiono-1,2,4-triazol-1-yl)-methyl]-oxirane, reference compound]: the Efficacy in % with Podosphaera leucotricha (application rate 1 g/ha) is 57%; in the data set on Podosphaera leucotricha (application rate 10 g/ha), 92%.

Values taken from patent US6414007B1, “Oxiranyl-triazoline thiones and their use as microbicides” (Bayer Aktiengesellschaft, priority 1997, dated 2002).
